Columns and labels:
[1] = target: Serotransferrin (Homo sapiens) (UniProt P02787); test: Induction of iron removal from 59Fe]transferrin assessed as iron release after 3 hrs relative to control; design: concentration or dose not given beside the values
[2] = Octanol-water partition coefficient, log P of the compound; assay type: physicochemical
[3] = target: Serotransferrin (Homo sapiens) (UniProt P02787); test: Reduction of cellular iron uptake from 59Fe]transferrin in human SK-N-MC cells at 25 uM after 3 hrs relative to control; assay type: cell-based; design: scale not given: the % may be the effect or the level left
[4] = test system: SK-N-MC; test: cells; details: Homo sapiens, 72 h
Description: Antiproliferative activity against human SK-N-MC cells after 72 hrs by MTT assay

[5] = test system: SK-N-MC; test: Induction of iron mobilization in 59Fe]transferrin labeled human SK-N-MC cells assessed as iron release at 25 uM after 3 hrs by gamma scintillation counter; assay type: functional
[6] = test system: SK-N-MC; test: Cytotoxicity against 59Fe]transferrin prelabeled human SK-N-MC cells assessed as cell viability at 25 uM after 3 hrs; assay type: cell-based

Sequence of Serotransferrin (Homo sapiens) (P02787 whole entry): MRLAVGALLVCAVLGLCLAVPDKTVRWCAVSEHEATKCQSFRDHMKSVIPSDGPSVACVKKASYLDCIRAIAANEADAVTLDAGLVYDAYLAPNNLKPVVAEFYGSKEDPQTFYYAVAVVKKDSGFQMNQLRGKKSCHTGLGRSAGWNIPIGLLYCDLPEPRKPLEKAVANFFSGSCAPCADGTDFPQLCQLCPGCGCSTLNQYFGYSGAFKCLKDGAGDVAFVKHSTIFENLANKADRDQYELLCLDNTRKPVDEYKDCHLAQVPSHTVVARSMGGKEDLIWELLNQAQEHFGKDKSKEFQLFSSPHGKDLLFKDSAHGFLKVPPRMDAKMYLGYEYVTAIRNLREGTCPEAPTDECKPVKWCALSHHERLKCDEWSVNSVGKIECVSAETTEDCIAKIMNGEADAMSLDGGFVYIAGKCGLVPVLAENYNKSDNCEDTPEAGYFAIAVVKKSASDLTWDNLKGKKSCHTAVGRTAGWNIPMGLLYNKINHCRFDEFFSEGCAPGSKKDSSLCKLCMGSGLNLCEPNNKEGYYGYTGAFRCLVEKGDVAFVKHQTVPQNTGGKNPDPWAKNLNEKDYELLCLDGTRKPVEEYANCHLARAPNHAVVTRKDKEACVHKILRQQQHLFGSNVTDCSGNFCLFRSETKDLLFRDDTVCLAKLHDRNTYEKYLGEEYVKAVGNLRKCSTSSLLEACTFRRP

Row | SMILES | Activity [1] | logP [2] | Activity [3] | IC50 [4] | Activity [5] | Activity [6]
1 | NC(=S)N/N=C(\c1ccccc1)c1ccccn1 | 2% | – | – | – | – | –
2 | C/C(=N\NC(N)=S)c1ccccn1 | 1% | 1.52 | 4% | 3530 nM | – | –
3 | Cc1c(O)c(=O)ccn1C | 20% | – | – | – | – | –
4 | CN(C)C(=S)NN=C(c1ccccn1)c1ccccn1 | 2.9% | – | 7% | – | 27% | –
5 | Cc1ncc(CO)c(/C=N/NC(=O)c2ccncc2)c1O [PYRIDOXAL ISONICOTINOYL HYDRAZONE] | – | – | 11% | – | 37% | –
6 | CC(=O)N(O)CCCCCNC(=O)CCC(=O)N(O)CCCCCNC(=O)CCC(=O)N(O)CCCCCN [DEFEROXAMINE] | 14.2% | – | 83% | 7350 nM | 13% | –
7 | O=C(N/N=C/c1c(O)ccc2ccccc12)c1ccncc1 | – | – | – | 500 nM | – | –
8 | CNC(=S)N/N=C(\C)c1ccccn1 | 1.8% | 2.7 | 4% | 11 nM | – | –
9 | NC(=S)NN=C(c1ccccn1)c1ccccn1 | 1.6% | – | – | – | – | –
10 | C/C(=N\NC(=S)Nc1ccccc1)c1ccccn1 | 0.9% | 2.99 | 35% | 1 nM | 33% | Non-toxic
11 | C/C(=N\NC(=S)N(C)C)c1ccccn1 | 2.7% | 1.8 | 4% | 1 nM | – | –
12 | CCNC(=S)N/N=C(\c1ccccc1)c1ccccn1 | 3.1% | – | – | 3 nM | – | –
13 | C=CCNC(=S)N/N=C(\C)c1ccccn1 | 1.7% | 1.76 | 4% | 1 nM | – | –
14 | CCNC(=S)N/N=C(\C)c1ccccn1 | 2.1% | 1.52 | 4% | 2 nM | – | –

— ChEMBL document CHEMBL1140951, “2-Acetylpyridine thiosemicarbazones are potent iron chelators and antiproliferative agents: redox activity, iron complexation and characterization of their antitumor activity” (J Med Chem, 2009)
